The results in this text go back to ChEMBL document CHEMBL5614464, “Geldanamycin, a Naturally Occurring Inhibitor of Hsp90 and a Lead Compound for Medicinal Chemistry” (J Med Chem, 2024).

Experiment [1] is described as follows: Inhibition of recombinant HSP90 (unknown origin). On the set-up: species or system Homo sapiens.
For the next experiment, the system named is PC-3. The experiment in a line: Antiproliferative activity against human PC-3 cells assessed as reduction in cell viability incubated for 48 hrs by MTT assay. The experiment is classed as functional, cell-based. The following applies: PC-3, 48 h. Background: Formazan colour is commonly taken as a measure of viable cells.
The subject of a further experiment is SK-OV-3. The experiment is described as follows: Antiproliferative activity against human SK-OV-3 cells assessed as reduction in cell viability incubated for 48 hrs by MTT assay. The experiment is classed as functional, cell-based. The following applies: SK-OV-3, 48 h.

With `CO[C@H]1/C=C\C=C(/C)C(=O)NC2=CC(=O)C(c3ccccc3)=C(C[C@@H](C)C[C@H](OC)[C@H](O)[C@@H](C)/C=C(\C)[C@@H]1OC(N)=O)C2=O`, the IC50 (in general, the concentration at which inhibition is half-maximal) in experiment [1] was found to be 1700 nM.
In the case of `COC1=C2C[C@@H](C)C[C@H](OC)[C@H](O)[C@@H](C)/C=C(\C)[C@H](OC(N)=O)[C@@H](OC)/C=C\C=C(/C)C(=O)NC(=CC1=O)C2=O` [GELDANAMYCIN], the IC50 in the experiment on PC-3 and with SK-OV-3 was 580 nM throughout.
